Experimental data: publication PMC3573010, “Bacillus megaterium Has Both a Functional BluB Protein Required for DMB Synthesis and a Related Flavoprotein That Forms a Stable Radical Species” (PLoS ONE, 2013)

Assays:
CbiY(Bm) = target: T1, CbiY(Bm) (Priestia megaterium, UniProt D5DG39); assay: UV-visible spectrum of purified holoprotein; heat release, HPLC and mass spectrometry; format: binding; conditions: non-covalently bound, co-purified
T1 construct: native N-terminus MTIISQLK by primer
T1 sequence (D5DG39 1-189): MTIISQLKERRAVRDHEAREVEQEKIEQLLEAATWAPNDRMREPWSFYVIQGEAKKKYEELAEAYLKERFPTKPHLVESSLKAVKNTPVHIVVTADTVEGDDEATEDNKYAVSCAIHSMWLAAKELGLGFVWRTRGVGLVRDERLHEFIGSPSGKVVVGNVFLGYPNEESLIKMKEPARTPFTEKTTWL

BluB(Bm) = target: T2, BluB(Bm) (Priestia megaterium, UniProt D5DCL0); assay: HPLC of DMB formed; format: biochemical; conditions: O2 required; […] Tris-HCl pH […] NaCl, […] DTT; room temperature; FMN reduced in situ by NADH
T2 construct: native N-terminus MNSFTN by printed primer
T2 sequence (D5DCL0 1-217): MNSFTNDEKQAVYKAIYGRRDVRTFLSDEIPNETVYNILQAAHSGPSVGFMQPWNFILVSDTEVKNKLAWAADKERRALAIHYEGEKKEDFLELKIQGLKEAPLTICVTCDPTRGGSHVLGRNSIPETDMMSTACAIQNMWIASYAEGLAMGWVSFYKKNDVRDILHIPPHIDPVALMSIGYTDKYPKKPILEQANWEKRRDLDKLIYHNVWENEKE

BluB(Rc) = target: T3, BluB(Rc) (Rhodobacter capsulatus, UniProt D5AV14); assay: HPLC of DMB formed; stopped-flow detection of 4a-peroxyflavin at […] nm; format: biochemical; conditions: O2 required; 20 mM Tris-HCl pH 8.0, 100 mM NaCl; FMN reduced by NADH (HPLC) or dithionite (stopped-flow)
T3 construct: N-terminal His6 tag with thrombin site (pET14b), expressed in E. coli BL21star(DE3)pLysS, 25 kDa on SDS-PAGE; native N-terminus MNFEQT by printed primer
T3 sequence (D5AV14 whole entry): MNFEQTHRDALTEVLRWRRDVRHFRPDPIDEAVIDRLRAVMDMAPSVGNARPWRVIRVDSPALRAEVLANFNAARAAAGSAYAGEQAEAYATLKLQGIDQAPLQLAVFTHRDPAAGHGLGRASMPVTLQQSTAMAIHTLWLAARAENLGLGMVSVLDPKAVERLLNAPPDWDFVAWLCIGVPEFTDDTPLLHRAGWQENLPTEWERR

| SMILES | UV-visible spectrum of purified holoprotein; heat release, HPLC and mass spectro (CbiY(Bm)) | HPLC of DMB formed (BluB(Bm)) | HPLC of DMB formed; stopped-flow detection of 4a-peroxyflavin at 380 nm (BluB(Rc)) |
| --- | --- | --- | --- |
| Cc1cc2nc3c(=O)[nH]c(=O)nc-3n(C[C@H](O)[C@H](O)[C@H](O)COP(=O)(O)O)c2cc1C [FMN] | The flavin cofactor could be removed from the holoenzyme by denaturing the protein |  |  |
| Cc1cc2c(cc1C)N(C[C@H](O)[C@H](O)[C@H](O)COP(=O)(O)O)c1[nH]c(=O)[nH]c(=O)c1N2 [FMNH2] |  | DMB formation was observed in reaction mixtures containing either BluB(Rc) or BluB(Bm) | In the case of the BluB(Rc) enzyme, rapid formation of a peroxyflavin intermediate |
